From patent publication US5043450A, “8-alkoxyquinolonecarboxylic acid and salts thereof” (priority 1986, dated 1991)
Converted amounts (≈) assume the structure as drawn. Read-outs that look alike come from different tables or passages of the source.

How the values were obtained:
Type in all cases: cell-based
[1] = system: Bacilus subtilis PCI 219; assay: Antibacterial spectra, MIC; conditions: Bacillus subtilis, PCI219
[2] = system: Staphylococcus aureus 209 P; assay: Antibacterial spectra, MIC
[3] = system: S. aureus IID 670 (Terajima); assay: Antibacterial spectra, MIC; conditions: Staphylococcus aureus, IID670
[4] = system: S. aureus Smith; assay: Antibacterial spectra, MIC; conditions: Staphylococcus aureus
[5] = system: S. epidermidis IID 866; assay: Antibacterial spectra, MIC; conditions: Staphylococcus epidermidis, IID866
[6] = system: E. coli ML 4707; assay: Antibacterial spectra, MIC; conditions: Escherichia coli, ML4707; 10^6 cells/ml; Gram -
Method: (§1) The antibacterial test was carried out according to the method designated by Japan Society of Chemotherapy.

[7] = system: E. faecalis IID 682; assay: Antibacterial spectra, MIC; conditions: Enterococcus faecalis, IID682; 10^6 cells/ml; Gram +
Method: as §1

[8] = system: Proteus vulgaris IFO 3167; assay: Antibacterial spectra, MIC; conditions: IFO3167, 10^6 cells/ml, Gram -
Method: as §1

[9] = system: Shigella sonnei IID 969; assay: Antibacterial spectra, MIC; conditions: IID969, 10^6 cells/ml, Gram -
Method: as §1

[10] = system: Streptococcus pyogenes (S-8); assay: Antibacterial spectra, MIC; conditions: 10^6 cells/ml, Gram +
Method: as §1

[11] = system: S. pyogenes IID 692; assay: Antibacterial spectra, MIC; conditions: Streptococcus pyogenes, IID692
[12] = system: S. pneumoniae IID 552; assay: Antibacterial spectra, MIC; conditions: Streptococcus pneumoniae, IID552
[13] = system: Escherichia coli NIHJ JC-2; assay: Antibacterial spectra, MIC; conditions: NIHJJC2
[14] = system: E. coli ATCC 10536; assay: Antibacterial spectra, MIC; conditions: Escherichia coli, ATCC10536
[15] = system: P. mirabilis IID 994; assay: Antibacterial spectra, MIC; conditions: Proteus mirabilis, IID994
[16] = system: Morganella morganii IID 602; assay: Antibacterial spectra, MIC; conditions: IID602
[17] = system: Klebsiella pneumoniae KY(GN)6445; assay: Antibacterial spectra, MIC
[18] = system: K. pneumoniae 1-220S; assay: Antibacterial spectra, MIC; conditions: Klebsiella pneumoniae, 1220S
[19] = system: Enterobacter cloacae IID 977; assay: Antibacterial spectra, MIC; conditions: IID977
[20] = system: Citrobacter freundii IID 976; assay: Antibacterial spectra, MIC; conditions: IID976
[21] = system: Serratia marcescens IID 618; assay: Antibacterial spectra, MIC; conditions: IID618
[22] = system: Salmonella enteritidis IID 604; assay: Antibacterial spectra, MIC; conditions: Salmonella enterica
[23] = system: Pseudomonas aeruginosa V-1; assay: Antibacterial spectra, MIC; conditions: V1
[24] = system: P. aeruginosa IFO 12689; assay: Antibacterial spectra, MIC; conditions: Pseudomonas aeruginosa, IFO12689
[25] = system: P. aeruginosa IID 1210; assay: Antibacterial spectra, MIC; conditions: Pseudomonas aeruginosa, IID1210
[26] = system: P. cepacia GIFU 518; assay: Antibacterial spectra, MIC; conditions: Burkholderia cepacia, GIFU518
[27] = system: P. maltophilia GIFU 2491; assay: Antibacterial spectra, MIC; conditions: Stenotrophomonas maltophilia, GIFU2491
[28] = system: Yersinia enterocolitica IID 981; assay: Antibacterial spectra, MIC; conditions: IID981
[29] = system: Acinetobacter anitratus IID 876; assay: Antibacterial spectra, MIC; conditions: Acinetobacter calcoaceticus, IID876
[30] = system: Alcaligenes faecalis 0114002; assay: Antibacterial spectra, MIC
[31] = system: Bacteroides fragilis GM 7000; assay: Antibacterial spectra, MIC; conditions: GM7000
[32] = system: B. fragilis 0558; assay: Antibacterial spectra, MIC; conditions: Bacteroides fragilis
[33] = system: B. fragilis 25285; assay: Antibacterial spectra, MIC; conditions: Bacteroides fragilis
[34] = system: B. distasonis 8503; assay: Antibacterial spectra, MIC; conditions: Parabacteroides distasonis
[35] = system: B. thetaiotaomicron (0661); assay: Antibacterial spectra, MIC; conditions: Bacteroides thetaiotaomicron
[36] = system: B. vulgatus KYA 29327; assay: Antibacterial spectra, MIC; conditions: Phocaeicola vulgatus, KYA29327
[37] = system: Fusobacterium mortiferum 4249; assay: Antibacterial spectra, MIC
[38] = system: F. necrophorum S-45; assay: Antibacterial spectra, MIC; conditions: Fusobacterium necrophorum, S45
[39] = system: F. varium KYA 8501; assay: Antibacterial spectra, MIC; conditions: Fusobacterium varium, KYA8501; 10^6 cells/ml; Gram -; read-out: MIC
[40] = system: Eubacterium lentum GAI 5242; assay: Antibacterial spectra, MIC; conditions: Eggerthella lenta, GAI5242
[41] = system: Propionibacterium acens 11828; assay: Antibacterial spectra, MIC
[42] = system: Peptococcus magnus KY 017; assay: Antibacterial spectra, MIC; conditions: Finegoldia magna, KY017
[43] = system: Clostridium difficile I-E; assay: Antibacterial spectra, MIC; conditions: Clostridioides difficile
[44] = system: C. perfringens KYA 13123; assay: microbe, parasite or virus in culture; conditions: Clostridium perfringens, KYA13123
[45] = system: C. ramosum; assay: Antibacterial spectra, MIC; conditions: Thomasclavelia ramosa
[46] = system: Peptostreptococcus anaerobius KYA 27337; assay: Antibacterial spectra, MIC; conditions: KYA27337
[47] = system: Pst. micros UPI 5464-1; assay: Antibacterial spectra, MIC; conditions: Parvimonas micra, UPI54641
[48] = system: Veillonella parvula KYA 10790; assay: Antibacterial spectra, MIC; conditions: KYA10790

Compound: COc1c(N2C[C@@H](C)[C@H](N)C2)c(F)cc2c(=O)c(C(=O)O)cn(C3CC3)c12 (relative stereo) [Exp. 6, 7-(trans-3-amino-4-methyl-1-pyrrolidinyl)-1-cyclopropyl-6-fluoro-1,4-dihydro-8-methoxy-4-oxo-3-quinolinecarboxylic acid]
- MIC [1]: 0.0125 µg/mL (≈ 0.0333 µM)
- MIC [2]: 0.025 µg/mL (≈ 0.0666 µM)
- MIC [3]: 0.05 µg/mL (≈ 0.133 µM)
- MIC [4]: 0.05 µg/mL (≈ 0.133 µM)
- MIC [5]: 0.1 µg/mL (≈ 0.266 µM)
- MIC [6]: 0.0125 µg/mL (≈ 0.0333 µM)
- MIC [7]: 0.1 µg/mL
- MIC [8]: 0.05 µg/mL (≈ 0.133 µM)
- MIC [9]: 0.0125 µg/mL (≈ 0.0333 µM)
- MIC [10]: 0.05 µg/mL
- MIC [11]: 0.1 µg/mL (≈ 0.266 µM)
- MIC [12]: 0.1 µg/mL (≈ 0.266 µM)
- MIC [13]: 0.0125 µg/mL (≈ 0.0333 µM)
- MIC [14]: 0.0125 µg/mL (≈ 0.0333 µM)
- MIC [15]: 0.05 µg/mL (≈ 0.133 µM)
- MIC [16]: 0.1 µg/mL (≈ 0.266 µM)
- MIC [17]: 0.05 µg/mL (≈ 0.133 µM)
- MIC [18]: 0.05 µg/mL (≈ 0.133 µM)
- MIC [19]: 0.05 µg/mL (≈ 0.133 µM)
- MIC [20]: 0.05 µg/mL (≈ 0.133 µM)
- MIC [21]: 0.05 µg/mL (≈ 0.133 µM)
- MIC [22]: 0.05 µg/mL (≈ 0.133 µM)
- MIC [23]: 0.78 µg/mL (≈ 2.08 µM)
- MIC [24]: 0.78 µg/mL (≈ 2.08 µM)
- MIC [25]: 0.78 µg/mL (≈ 2.08 µM)
- MIC [26]: 0.39 µg/mL (≈ 1.04 µM)
- MIC [27]: 0.05 µg/mL (≈ 0.133 µM)
- MIC [28]: 0.05 µg/mL (≈ 0.133 µM)
- MIC [29]: 0.05 µg/mL (≈ 0.133 µM)
- MIC [30]: 0.2 µg/mL (≈ 0.533 µM)
- MIC [31]: 0.1 µg/mL (≈ 0.266 µM)
- MIC [32]: 0.1 µg/mL (≈ 0.266 µM)
- MIC [33]: 0.1 µg/mL (≈ 0.266 µM)
- MIC [34]: 0.39 µg/mL (≈ 1.04 µM)
- MIC [35]: 0.2 µg/mL (≈ 0.533 µM)
- MIC [36]: 0.2 µg/mL (≈ 0.533 µM)
- MIC [37]: 0.2 µg/mL (≈ 0.533 µM)
- MIC [38]: 0.2 µg/mL (≈ 0.533 µM)
- MIC [39]: 1.56 µg/mL (≈ 4.16 µM)
- MIC [40]: ≤ 0.05 µg/mL
- MIC [41]: 3.13 µg/mL (≈ 8.34 µM)
- MIC [42]: ≤ 0.05 µg/mL
- MIC [43]: 0.78 µg/mL (≈ 2.08 µM)
- MIC [44]: 0.2 µg/mL (≈ 0.533 µM)
- MIC [45]: 0.78 µg/mL (≈ 2.08 µM)
- MIC [46]: 0.1 µg/mL (≈ 0.266 µM)
- MIC [47]: 0.2 µg/mL (≈ 0.533 µM)
- MIC [48]: 0.2 µg/mL (≈ 0.533 µM)

Compound: COc1c(N2CCC(N)C2)c(F)cc2c(=O)c(C(=O)O)cn(C3CC3)c12 (stereo not drawn) [Exp. 4, 7-(3-amino-1-pyrrolidinyl)-1-cyclopropyl-6-fluoro-1,4-dihydro-8-methoxy-4-oxo-3-quinolinecarboxylic acid]
- MIC [1]: 0.025 µg/mL (≈ 0.0692 µM)
- MIC [2]: 0.05 µg/mL (≈ 0.138 µM)
- MIC [3]: 0.05 µg/mL (≈ 0.138 µM)
- MIC [4]: 0.05 µg/mL (≈ 0.138 µM)
- MIC [5]: 0.1 µg/mL (≈ 0.277 µM)
- MIC [6]: 0.025 µg/mL (≈ 0.0692 µM)
- MIC [7]: 0.1 µg/mL
- MIC [8]: 0.025 µg/mL (≈ 0.0692 µM)
- MIC [9]: 0.025 µg/mL (≈ 0.0692 µM)
- MIC [10]: 0.05 µg/mL
- MIC [11]: 0.1 µg/mL (≈ 0.277 µM)
- MIC [12]: 0.1 µg/mL (≈ 0.277 µM)
- MIC [13]: 0.0125 µg/mL (≈ 0.0346 µM)
- MIC [14]: 0.025 µg/mL (≈ 0.0692 µM)
- MIC [15]: 0.05 µg/mL (≈ 0.138 µM)
- MIC [16]: 0.05 µg/mL (≈ 0.138 µM)
- MIC [17]: 0.05 µg/mL (≈ 0.138 µM)
- MIC [18]: 0.05 µg/mL (≈ 0.138 µM)
- MIC [19]: 0.05 µg/mL (≈ 0.138 µM)
- MIC [20]: 0.05 µg/mL (≈ 0.138 µM)
- MIC [21]: 0.05 µg/mL (≈ 0.138 µM)
- MIC [22]: 0.05 µg/mL (≈ 0.138 µM)
- MIC [23]: 0.39 µg/mL (≈ 1.08 µM)
- MIC [24]: 0.39 µg/mL (≈ 1.08 µM)
- MIC [25]: 0.39 µg/mL (≈ 1.08 µM)
- MIC [26]: 0.39 µg/mL (≈ 1.08 µM)
- MIC [27]: 0.1 µg/mL (≈ 0.277 µM)
- MIC [28]: 0.05 µg/mL (≈ 0.138 µM)
- MIC [29]: 0.05 µg/mL (≈ 0.138 µM)
- MIC [30]: 0.39 µg/mL (≈ 1.08 µM)
- MIC [31]: 0.2 µg/mL (≈ 0.553 µM)
- MIC [32]: 0.1 µg/mL (≈ 0.277 µM)
- MIC [33]: 0.1 µg/mL (≈ 0.277 µM)
- MIC [34]: 0.78 µg/mL (≈ 2.16 µM)
- MIC [35]: 0.2 µg/mL (≈ 0.553 µM)
- MIC [36]: 0.39 µg/mL (≈ 1.08 µM)
- MIC [37]: 0.2 µg/mL (≈ 0.553 µM)
- MIC [38]: 0.2 µg/mL (≈ 0.553 µM)
- MIC [39]: 1.56 µg/mL (≈ 4.32 µM)
- MIC [40]: 0.1 µg/mL (≈ 0.277 µM)
- MIC ([41]; 10^6 cells/ml, Gram +, read-out: MIC): 1.56 µg/mL (≈ 4.32 µM)
- MIC [42]: 0.1 µg/mL (≈ 0.277 µM)
- MIC [43]: 0.39 µg/mL (≈ 1.08 µM)
- MIC [44]: 0.2 µg/mL (≈ 0.553 µM)
- MIC [45]: 0.78 µg/mL (≈ 2.16 µM)
- MIC [46]: 0.2 µg/mL (≈ 0.553 µM)
- MIC [47]: 0.2 µg/mL (≈ 0.553 µM)
- MIC [48]: 0.2 µg/mL (≈ 0.553 µM)
